Results: US20110081296A1, “SYSTEMS AND METHODS FOR IDENTIFICATION OF CILIOPATHY THERAPEUTICS” (RUTGERS, THE STATE UNIVERSITY OF NEW JERSEY, priority 2009, published 2011)

How the values were obtained:
Assay type in all cases: cell-based, Caenorhabditis elegans
WT sperm = assay: in vitro sperm crawling on glass slides after chemical activation, wild type; details: n=7
Procedure: (§1) Epifluorescence and Nomarski analyses were performed on a Zeiss Axioplan2 imaging system equipped with 10×, 63× (NA 1.4), 100× (NA 1.4) objectives and a Photometrics Cascade 512B CCD camera using Metamorph software. 3D deconvolution of Z-stacks of epifluorescent image were performed by AutoQuantX program (MediaCybernetics). Confocal images were collected using a 510 LSM META ZEISS. Optical sections were collected between 0.4-1.0 μm and projected as Z-series that were stored as TIFF files and manipulated using Adobe PhotoShopTM. Worms were anesthetized with 1 mM levamisole, mounted on agar pads and maintained at room temperature. For time-lapse microscopy of sperm motility, Nomarski images were taken every 15 seconds for up to 15 minutes. Neuronal images shown in figures are projected epifluorescent Z-stacks af[…] deconvolution except for FIGS. 2C and 2G, which are projected Z-stacks of confocal sections. For electron microscopy, sperm were prepared as known in the art, except that the samples were embedded in LX112 (Ladd Research Industries Inc., Burlington, Va.). To isolate spermatids, virgin L4 males were isolated for 2-3 days in 20 degrees and cut with a 25g needle on a glass slide in Sperm Media (SM) pH 7.9 with 10 mM Dextrose. For in vitro activation, 20 ug/ml of Pronase or 100 nM monensin (for in vitro sperm crawling experiments) was added to SM as described in [21]. […]

my15 sperm = assay: in vitro sperm crawling on glass slides after chemical activation, cil-1(my15) mutant; details: isolated my15 sperm
Procedure: as §1

WT spermatids = assay: in vitro sperm activation of isolated male spermatids, wild type; details: of 1, 10, 100 nM tested
Procedure: (§2) To isolate spermatids, virgin L4 males were isolated for 2-3 days in 20 degrees and cut with a 25g needle on a glass slide in Sperm Media (SM) pH 7.9 with 10 mM Dextrose. For in vitro activation, 20 ug/ml of Pronase or 100 nM monensin (for in vitro sperm crawling experiments) was added to SM as described in [21]. For wortmannin treatment, a 100× wortmannin stock solution in DMSO was added to reach the final concentration of 100 nM into SM. During sperm activation, a round spermatid develops into a motile spermatozoon with a pseudopod (FIG. 16A). This process can be mimicked in vitro by chemical activators such as the ionophore monensin or Pronase. Within 15 min of Pronase application, the majority of WT male spermatids (63.4%, n=347) extend pseudopods (FIGS. 16B and 16B′), and the average length of spermatozoa is 8.13±1.11 μm (±standard deviation [SD], n=95) (FIG. 16B′). […] The diameter of my15 spermatids is also slightly smaller (6.22±0.54 μm, n=136) than WT (6.73±0.65 μm, n=110, p=8.08E-07). In vivo sperm activation defects were observed also in my15 hermaphrodites. […] Thus, cil-1 positively regulates sperm activation in vitro and in vivo. […] To this end, 1 nM, 10 nM, and 100 nM wortmannin, a pharmacological inhibitor of PI 3-kinases that produce PI(3,4,5)P3 from PI(4,5)P2 [27], were applied to WT and my15 spermatids.

my15 spermatids = assay: in vitro sperm activation of isolated male spermatids, cil-1(my15) mutant; details: 100 nM
Procedure: as §2

SMILES	sperm crawl rate (WT sperm)	sperm motility (my15 sperm)	most effective concentration for in vitro activation (WT spermatids)	activation of male-derived sperm (my15 spermatids)
CC[C@@]1([C@@H]2O[C@@H]([C@H]3O[C@@](O)(CO)[C@H](C)C[C@@H]3C)C[C@@H]2C)CC[C@H]([C@]2(C)CC[C@]3(C[C@H](O)[C@@H](C)[C@@H]([C@@H](C)[C@@H](OC)[C@H](C)C(=O)O)O3)O2)O1 [monensin]	0.33±0.04 μm/s	immotile	–	–
COC[C@H]1OC(=O)c2coc3c2[C@@]1(C)C1=C(C3=O)[C@@H]2CCC(=O)[C@@]2(C)C[C@H]1OC(C)=O [wortmannin]	–	–	100 nM	not activated
